The record followed here is BindingDB's records for patent US12065430 (Taiho Pharmaceutical, 2024).

The structures appear in SMILES notation.

What is called IC50 is the concentration at which inhibition is half-maximal. High values mean weaker potency, low ones greater potency.

T1 sequence (P01116 whole entry G12C): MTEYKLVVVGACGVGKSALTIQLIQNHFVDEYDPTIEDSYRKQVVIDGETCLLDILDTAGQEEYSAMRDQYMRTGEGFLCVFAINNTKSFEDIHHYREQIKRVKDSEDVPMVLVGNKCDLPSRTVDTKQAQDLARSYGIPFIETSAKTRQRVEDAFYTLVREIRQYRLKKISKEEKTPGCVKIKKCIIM
T1 sequence (Q07889 564-1049): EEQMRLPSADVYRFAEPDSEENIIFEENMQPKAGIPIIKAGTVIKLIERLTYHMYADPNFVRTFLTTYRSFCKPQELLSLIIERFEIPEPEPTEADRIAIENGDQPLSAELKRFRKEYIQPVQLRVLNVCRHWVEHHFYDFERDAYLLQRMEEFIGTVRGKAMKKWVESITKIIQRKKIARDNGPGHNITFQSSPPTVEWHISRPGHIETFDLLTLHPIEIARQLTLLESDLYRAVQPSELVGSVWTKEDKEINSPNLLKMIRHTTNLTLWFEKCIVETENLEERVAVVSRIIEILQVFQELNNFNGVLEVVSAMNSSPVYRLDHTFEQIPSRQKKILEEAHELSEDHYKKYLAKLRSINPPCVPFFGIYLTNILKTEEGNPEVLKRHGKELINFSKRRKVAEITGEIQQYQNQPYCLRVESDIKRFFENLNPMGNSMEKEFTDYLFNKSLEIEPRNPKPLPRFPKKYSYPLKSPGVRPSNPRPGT

The test addresses T1, Son of sevenless homolog 1 [564-1049]/GTPase KRas [G12C] (UniProt P01116+Q07889, G12C).
T1 construct: 564-1049
The experiment in a line: Evaluation of Inhibitory Activity of Compounds on KRAS G12C Nucleotide (GDP-GTP) Exchange Reaction. As for the experimental part: The inhibitory activity of compounds on exchange reaction of GDP into GppNHp in Bodipy (trademark) FL-bound KRAS G12C was examined by fluorescence measurement using human recombinant KRAS G12C and SOS1 proteins.For the preparation of KRAS G12C to which Bodipy FL GDP was bound, first, […] KRAS G12C (amino acid region: 1-169) and 1 mM Bodipy FL GDP (Invitrogen, G22360) were incubated for 1 hour in a buffer (20 mM Tris-HCl (pH 7.5), 50 mM NaCl, 1 mM DTT) in ice in the presence of 2.5 mM EDTA. Thereafter, MgCl2 with a final concentration of 10 mM was added, and the mixture was incubated at room temperature for 30 minutes. The protein was allowed to pass through a NAP-5 column to remove free nucleotides and was used for compound evaluation.For the measurement of the inhibitory activity of compounds on nucleotide exchange reaction, first, the compound of the present invention was diluted stepwise with dimethyl sulfoxide (DMSO). Subsequently, a solution of the gradually diluted compound of the present invention in DMSO (the final concentration of DMSO: 5%) and KRAS G12C (25 nM) bound to Bodipy FL GDP were added to a reaction buffer (20 mM Tris-HCl (pH 7.5), 100 mM NaCl, 1 mM MgCl2, 2 mM DTT, 0.1% Tween20), followed by preincubation at 25° C. for 4 hours. Thereafter, Son of Sevenless Homolog 1 (SOS1, amino acid region: 564-1049) and GppNHp (GMPPNP, Jena Bioscience GmbH, NU-401-50) were added such that their final concentration was 100 nM and 1 μM respectively, followed by reaction for 30 minutes. The change in fluorescence intensity of Bodipy FL (excitation wavelength: 485 nm, fluorescence wavelength: 520 nm) immediately after the start of reaction and after 30 minutes from the start of reaction was standardized. The signal value for only DMSO was determined to be 0% inhibition, and the signal value for no addition of GppNHp was determined to be 100% inhibition. The compound concentration at which 50% inhibition is achieved was determined to be IC50 (nM), and was calculated.
For the compound `C=CC(=O)N1CC(NC(=O)c2cnc(CNc3n[nH]c4cc(Cl)c(C(C)(C)C)cc34)n2C)C1` [US12065430, Example 1], the IC50 was determined as 16 nM. The same measure for `C=CC(=O)N1CC(NC(=O)c2sc(CNc3n[nH]c4cc(Cl)c(C(C)(C)C)cc34)nc2C)C1` [US12065430, Example 2]: 365 nM; for `C=CC(=O)N1CC(NC(=O)c2cnc(C(C)Nc3n[nH]c4cc(Cl)c(C(C)(C)C)cc34)n2C)C1` (stereo not drawn) [US12065430, Example 4]: 1560 nM. Next, `C=CC(=O)N1CC(NC(=O)c2c(Cl)c(CNc3n[nH]c4cc(Cl)c(C(C)(C)C)cc34)nn2C)C1` [US12065430, Example 6]: 791 nM; `C=CC(=O)N1CC(NC(=O)c2csc(CNc3n[nH]c4cc(Cl)c(C(C)(C)C)cc34)n2)C1` [US12065430, Example 7]: 4260 nM.

On to `C=CC(=O)N1CC(NC(=O)c2cnc(CNc3n[nH]c4cc(Cl)c(C(C)(C)C)cc34)s2)C1` [US12065430, Example 8], for which 783 nM corresponded to half-maximal inhibition (IC50). Next, `C=CC(=O)N1CC(NC(=O)c2cc(CNc3n[nH]c4cc(Cl)c(C(C)(C)C)cc34)nn2C)C1` [US12065430, Example 9]: 3140 nM; `C=CC(=O)N1CC(NC(=O)c2c(C)c(CNc3n[nH]c4cc(Cl)c(C(C)(C)C)cc34)nn2C)C1` [US12065430, Example 10]: 129 nM; `C=CC(=O)N1CC(NC(=O)c2oc(CNc3n[nH]c4cc(Cl)c(C(C)(C)C)cc34)nc2C)C1` [US12065430, Example 11]: 1060 nM. `C=CC(=O)N1CC(NC(=O)c2c(C)nc(CNc3n[nH]c4cc(Cl)c(C(C)(C)C)cc34)n2CC)C1` [US12065430, Example 12]: the IC50 turned out to be 16 nM.

Take `C=CC(=O)N1CC(NC(=O)c2c(C)nc(CNc3n[nH]c4cc(Cl)c(C(C)(C)C)cc34)n2C(C)C)C1` [US12065430, Example 13]: the half-inhibitory concentration (IC50) was determined as 15 nM. Turning to `C=CC(=O)N1CC(NC(=O)c2c(C)nc(CNc3n[nH]c4cc(Cl)c(C(C)(C)C)cc34)n2CCOC)C1` [US12065430, Example 14], half-maximal inhibition (IC50) was put at 24 nM. Next, `C=CC(=O)N1CC(NC(=O)c2c(C)nc(CNc3n[nH]c4cc(Cl)c(C(C)(C)C)cc34)n2Cc2ccccc2)C1` [US12065430, Example 15]: 84 nM; `C=CC(=O)N1CC(NC(=O)c2c(C)nc(CNc3n[nH]c4cc(Cl)c(C(C)(C)C)cc34)n2CCN(C)C)C1` [US12065430, Example 16]: 25 nM. Compound `C=CC(=O)N1CC(NC(=O)c2c(C)nc(CNc3n[nH]c4cc(Cl)c(C(C)(C)C)cc34)n2C2CCCC2)C1` [US12065430, Example 17] gave an IC50 of 17 nM. In the case of `C=CC(=O)N1CC(NC(=O)c2c(C)nc(CNc3n[nH]c4cc(Cl)c(C(C)(C)C)cc34)n2CCCC)C1` [US12065430, Example 18], the half-maximal inhibitory concentration (IC50) amounted to 12 nM. Next, `C=CC(=O)N1CC(NC(=O)c2c(C)nc(CNc3n[nH]c4cc(Cl)c(C(C)(C)C)cc34)n2CCC)C1` [US12065430, Example 19]: 9 nM.

On to `C=CC(=O)N1CC(NC(=O)c2c(C)nc(CNc3n[nH]c4cc(Cl)c(C(C)(C)C)cc34)n2C(C)CC)C1` (stereo not drawn) [US12065430, Example 20], for which the IC50 worked out at 31 nM. Next, `C=CC(=O)N1CC(NC(=O)c2c(C)nc(CNc3n[nH]c4cc(Cl)c(C(C)(C)C)cc34)n2C(F)F)C1` [US12065430, Example 21]: 58 nM; `C=CC(=O)N1CC(NC(=O)c2c(C)nc(CNc3n[nH]c4cc(Cl)c(C(C)(C)C)cc34)n2CC(F)(F)F)C1` [US12065430, Example 22]: 55 nM; `C=CC(=O)N1CC(NC(=O)c2c(C)nc(CNc3n[nH]c4cc(Cl)c(C(C)(C)C)cc34)n2C2CC2)C1` [US12065430, Example 23]: 7 nM. Next, `C=CC(=O)N1CC(NC(=O)c2c(C)nc(CNc3n[nH]c4cc(Cl)c(C(C)(C)C)cc34)n2C(C)(C)C)C1` [US12065430, Example 24]: 35 nM; `C=CC(=O)N1CC(NC(=O)c2c(C(F)(F)F)nc(CNc3n[nH]c4cc(Cl)c(C(C)(C)C)cc34)n2C)C1` [US12065430, Example 25]: 163 nM. Regarding `C=CC(=O)N1CC(NC(=O)c2c(I)nc(CNc3n[nH]c4cc(Cl)c(C(C)(C)C)cc34)n2C)C1` [US12065430, Example 26], half-maximal inhibition (IC50) required 69 nM. The same measure for `C=CC(=O)N1CC(NC(=O)c2c(Br)nc(CNc3n[nH]c4cc(Cl)c(C(C)(C)C)cc34)n2C)C1` [US12065430, Example 27]: 8 nM; for `C=CC(=O)N1CC(NC(=O)c2c(C#N)nc(CNc3n[nH]c4cc(Cl)c(C(C)(C)C)cc34)n2C)C1` [US12065430, Example 28]: 70 nM.

`C=CC(=O)N1CC(NC(=O)c2c(Cl)nc(CNc3n[nH]c4cc(Cl)c(C(C)(C)C)cc34)n2C)C1` [US12065430, Example 29] gave an IC50 of 6 nM.

`C=CC(=O)N1CC(NC(=O)c2c(F)nc(CNc3n[nH]c4cc(Cl)c(C(C)(C)C)cc34)n2C)C1` [US12065430, Example 30]: it took 11 nM to reach half-maximal inhibition (IC50). The same measure for `C=CC(=O)N1CC(NC(=O)c2c(CC)nc(CNc3n[nH]c4cc(Cl)c(C(C)(C)C)cc34)n2C)C1` [US12065430, Example 31]: 642 nM; for `C=CC(=O)N1CC(NC(=O)c2c(C(F)(F)F)nc(CNc3n[nH]c4cc(Cl)c(C(C)(C)C)cc34)n2C(C)C)C1` [US12065430, Example 32]: 50 nM. The same measure for `C=CC(=O)N1CC(NC(=O)c2c(F)nc(CNc3n[nH]c4cc(Cl)c(C(C)(C)C)cc34)n2C(C)C)C1` [US12065430, Example 34]: 13 nM; for `C=CC(=O)N1CC(NC(=O)c2c(Cl)nc(CNc3n[nH]c4cc(Cl)c(C(C)(C)C)cc34)n2C(C)C)C1` [US12065430, Example 35]: 8 nM.

Compound `C=CC(=O)N1CC(NC(=O)c2cnc(CNc3n[nH]c4cc(Cl)c(C)cc34)n2C)C1` [US12065430, Example 37] came in with an IC50 of 5480 nM. Next, `C=CC(=O)N1CC(NC(=O)c2cnc(CNc3n[nH]c4cc(Cl)c(C=C)cc34)n2C)C1` [US12065430, Example 38]: 2170 nM; `C=CC(=O)N1CC(NC(=O)c2cnc(CNc3n[nH]c4cc(Cl)c(CC)cc34)n2C)C1` [US12065430, Example 39]: 870 nM; `C=CC(=O)N1CC(NC(=O)c2cnc(CNc3n[nH]c4cc(Cl)c(C(C)(C)C)nc34)n2C)C1` [US12065430, Example 40]: 27 nM. The same measure for `C=CC(=O)N1CC(NC(=O)c2c(C)nc(CNc3n[nH]c4cc(C)c(C(C)(C)C)cc34)n2C)C1` [US12065430, Example 41]: 14 nM; for `C=CC(=O)N1CC(NC(=O)c2c(C)nc(CNc3n[nH]c4ccc(C(C)(C)C)cc34)n2C(C)C)C1` [US12065430, Example 42]: 68 nM. Next, `C=CC(=O)N1CC(NC(=O)c2c(Cl)nc(CNc3n[nH]c4cc(Cl)c(C(=C)C(F)(F)F)cc34)n2C(C)C)C1` [US12065430, Example 43]: 809 nM; `C=CC(=O)N1CC(NC(=O)c2c(Cl)nc(CNc3n[nH]c4cc(Cl)c(C5(C(F)(F)F)CC5)cc34)n2C(C)C)C1` [US12065430, Example 44]: 180 nM.

Turning to `C=CC(=O)N1CC(NC(=O)c2c(Cl)nc(CNc3n[nH]c4cc(Cl)c(C(C)C)cc34)n2C(C)C)C1` [US12065430, Example 45], the IC50 worked out at 24 nM. Regarding `C=CC(=O)N1CCC(NC(=O)c2c(C)nc(CNc3n[nH]c4cc(Cl)c(C(C)(C)C)cc34)n2C)CC1` [US12065430, Example 47], the IC50 turned out to be 1730 nM. The same measure for `C=CC(=O)N1CC(N(C)C(=O)c2c(C)nc(CNc3n[nH]c4cc(Cl)c(C(C)(C)C)cc34)n2C)C1` [US12065430, Example 49]: 208 nM; for `C=CC(=O)N1CCN(C(=O)c2c(C)nc(CNc3n[nH]c4cc(Cl)c(C(C)(C)C)cc34)n2C)CC1` [US12065430, Example 50]: 4280 nM; for `C=CC(=O)N(C)C1CN(C(=O)c2c(C)nc(CNc3n[nH]c4cc(Cl)c(C(C)(C)C)cc34)n2C)C1` [US12065430, Example 51]: 42 nM. The compound `C=CC(=O)N1CC(NC(=O)c2c(C)nc(CNc3n[nH]c4cc(Cl)c(C(C)(C)C)cc34)n2C)C(F)(F)C1` (stereo not drawn) [US12065430, Example 53] gave an IC50 of 42 nM.

With `C=CC(=O)N1C[C@H](NC(=O)c2c(C)nc(CNc3n[nH]c4cc(Cl)c(C(C)(C)C)cc34)n2C)C2(CC2)C1` [US12065430, Example 54], half-maximal inhibition (IC50) required 301 nM. The same measure for `C=CC(=O)N1C[C@@H](CC#N)[C@@H](NC(=O)c2c(C)nc(CNc3n[nH]c4cc(Cl)c(C(C)(C)C)cc34)n2C)C1` [US12065430, Example 65]: 19 nM.
